# Literature values as cited in patent publication US6905813B2, “Processing agent for silver halide color photosensitive material and processing method thereof” (Chugai Photo Chemical Co., Ltd., priority 2001, dated 2005).
# Like-named read-outs stand apart in the source and are kept apart here.
# [1] = Table 1, additives of Example 1
# [2] = Table 3, additives of Example 2
# [3] = Table 7, additives of Example 4
# [4] = Table 5, additives of Example 3
Structure (SMILES),pKa [1],pKa [2],pKa [3],pKa [4]
"CC(N)CCN (centres unmarked) [1,3-diaminobutane]",8.74,8.74,8.74,–
Nc1ccccn1 [2-aminopyridine],–,–,–,6.79
O=S([O-])[O-].[Na+].[Na+] [Sodium sulfite],7.19,7.19,7.19,7.19
"NCCCCN [1,4-diaminobutane]",9.44,9.44,9.44,–
